Experiments:
EGFR CRE = assay: ERBBprofiler barcoded CRE pathway sensor, EGFR co-transfected; conditions: PC12 cells; constant EGF 30 ng/mL, EGFld 10 ng/mL, serotonin 1 μM; 6 h; barcode readout; relative IC50
EGFR = system: EGFR; set-up: method as in Fry et al., 1994; conditions: phospho-WB in A-431 cells; ref Fry et al., 1994; read-out: IC50_Literature, EGFR; cited from earlier work
ERBB4 = ERBB4 (Homo sapiens, UniProt Q15303); assay: ERBBprofiler barcoded split TEV assay, ERBB4; conditions: ERBB4 UAS (split TEV) IC50, PC12 cells; constant EGF 30 ng/mL, EGFld 10 ng/mL, serotonin 1 μM; 6 h; barcode readout; relative IC50
ERBB2/3 EGR1p = assay: ERBBprofiler barcoded EGR1p pathway sensor, ERBB2/3 co-transfected; conditions: Rattus norvegicus, PC-12, 6 h, read-out: ERBB2/3 EGR1p IC50
ERBB4 CRE = assay: ERBBprofiler barcoded CRE pathway sensor, ERBB4 co-transfected; conditions: PC12 cells; constant EGF 30 ng/mL, EGFld 10 ng/mL, serotonin 1 μM; 6 h; barcode readout; relative IC50
[1] = system: SkBr3, BT474 and HER2-overexpressing ovarian cancer cells SkOV3; set-up: method as in Moasser et al., 2001; conditions: cell growth assay in SkBr3, BT474 and SkOV3 cells; ref Moasser et al., 2001; read-out: IC50_Literature, ERBB2; cited from earlier work
ERBB3 = system: ERBB3; set-up: method as in Boateng et al., 2021; conditions: ELISA in MCF-7 cells; ref Boateng et al., 2021; read-out: IC50_Literature, ERBB3; cited from earlier work
HTR2A CRE = assay: ERBBprofiler barcoded CRE pathway sensor, HTR2A co-transfected; conditions: Rattus norvegicus, PC-12, 6 h, read-out: HTR2A CRE IC50
[2] = system: EGR1p (MAPK signaling), EGFR; assay: EGR1p pathway sensor luciferase assay, EGFR; format: cell-based, Rattus norvegicus; conditions: Rattus norvegicus, PC-12; read-out: EGFR downstream MAPK signaling IC50, EGR1p sensor luciferase
Experimental: 50,000 PC12 cells were seeded per 96-well onto poly-L-lysin (PLL)-coated plates and transfected the following day (day in vitro 1, DIV1) with assay plasmids using Lipofectamine 3000 (Thermo Fisher Scientific). For split TEV assays, plasmids (pcDNA3 or pTag4C backbone) encoding receptor-NTEV-tcs-GV, GRB2-SH2-CTEV (for ERBB receptors) or ARBB2-1-383-CTEV (for HTR2A) (all 10 ng/well), and the p10xUAS-luc2 reporter plasmid (10 ng/well) were used. For pathway assays, the receptor plasmids (15 ng/well) and pathway reporter plasmids (15 ng/well) pEGR1p-luc2 for monitoring MAPK signaling, pCRE-CMVmin-luc2 for monitoring cAMP/Ca^2+ signaling, or p6xNFAT-CMVmin-luc2 for Ca^2+ signaling were used. Transient transfections were conducted according to the manufacturer’s instructions. On DIV2, cells were starved in medium containing 1% FCS for 16 h. […] In the case of antagonist assays, compounds were added at increasing doses together with the stimulus. Cells were lysed in 1x passive lysis buffer (Promega) and subjected to a firefly luciferase assay using a self-made substrate for firefly luciferase.[100] Luciferase activity was analyzed in a Mithras LB 940 Multimode Microplate Reader (Berthold Technologies). All assays were run in 96-well plates using six replicates per condition.

ERBB4 NFAT = assay: ERBBprofiler barcoded NFAT pathway sensor, ERBB4 co-transfected; format: cell-based, Rattus norvegicus; conditions: PC12 cells; constant EGF 30 ng/mL, EGFld 10 ng/mL, serotonin 1 μM; 6 h; barcode readout; relative IC50
EGFR NFAT = assay: ERBBprofiler barcoded NFAT pathway sensor, EGFR co-transfected; format: cell-based, Rattus norvegicus; conditions: PC12 cells; constant EGF 30 ng/mL, EGFld 10 ng/mL, serotonin 1 μM; 6 h; barcode readout; relative IC50
A-431 cells = system: A-431 cells; set-up: method as in Li et al., 2017; conditions: Proliferation assay, SRB method, ref Li et al., 2017, read-out: IC50_Literature, EGFR; cited from earlier work
[3] = system: SK–BR–3 cells and NCI-N87 cells; set-up: method as in Li et al., 2017; conditions: Proliferation assay, SRB method, ref Li et al., 2017, read-out: IC50_Literature, ERBB2; cited from earlier work
CRE sensor = CRE sensor only luciferase assay in PC12 cells; format: cell-based, Rattus norvegicus

ERBB4, sequence (Q15303 26-1308): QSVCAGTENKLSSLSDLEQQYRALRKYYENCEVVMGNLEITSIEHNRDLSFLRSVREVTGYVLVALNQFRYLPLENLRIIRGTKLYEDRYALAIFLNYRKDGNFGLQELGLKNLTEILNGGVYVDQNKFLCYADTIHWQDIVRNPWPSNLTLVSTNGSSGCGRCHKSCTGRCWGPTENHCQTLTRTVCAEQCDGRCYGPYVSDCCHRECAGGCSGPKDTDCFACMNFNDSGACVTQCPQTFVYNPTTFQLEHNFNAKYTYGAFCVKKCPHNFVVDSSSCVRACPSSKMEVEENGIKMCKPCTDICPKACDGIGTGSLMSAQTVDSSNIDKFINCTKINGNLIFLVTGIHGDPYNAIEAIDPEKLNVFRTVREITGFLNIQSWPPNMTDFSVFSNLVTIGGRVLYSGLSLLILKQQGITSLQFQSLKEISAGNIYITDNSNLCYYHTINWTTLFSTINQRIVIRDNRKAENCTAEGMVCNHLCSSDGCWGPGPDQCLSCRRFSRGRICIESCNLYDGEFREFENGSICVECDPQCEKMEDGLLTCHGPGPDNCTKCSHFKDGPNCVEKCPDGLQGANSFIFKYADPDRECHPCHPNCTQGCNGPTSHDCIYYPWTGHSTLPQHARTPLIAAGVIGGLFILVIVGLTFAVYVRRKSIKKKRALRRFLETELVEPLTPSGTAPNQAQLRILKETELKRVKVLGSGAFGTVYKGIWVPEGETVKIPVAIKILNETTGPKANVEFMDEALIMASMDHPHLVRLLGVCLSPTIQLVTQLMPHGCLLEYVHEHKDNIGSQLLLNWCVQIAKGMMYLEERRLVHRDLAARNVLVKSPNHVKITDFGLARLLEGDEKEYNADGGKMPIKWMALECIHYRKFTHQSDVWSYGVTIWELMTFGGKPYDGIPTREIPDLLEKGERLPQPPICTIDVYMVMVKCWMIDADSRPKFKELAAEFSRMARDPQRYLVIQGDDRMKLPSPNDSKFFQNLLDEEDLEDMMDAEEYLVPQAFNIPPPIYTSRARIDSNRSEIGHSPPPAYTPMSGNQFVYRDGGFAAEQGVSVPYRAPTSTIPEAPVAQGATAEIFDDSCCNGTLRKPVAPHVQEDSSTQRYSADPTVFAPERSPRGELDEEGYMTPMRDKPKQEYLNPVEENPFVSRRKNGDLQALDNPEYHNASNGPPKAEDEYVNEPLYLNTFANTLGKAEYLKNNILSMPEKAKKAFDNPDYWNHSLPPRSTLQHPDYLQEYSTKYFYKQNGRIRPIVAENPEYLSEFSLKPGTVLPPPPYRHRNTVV

In the case of COc1cc2ncnc(Nc3cccc(Cl)c3)c2cc1OC [AG1478, AG-1478 (Tyrphostin AG-1478)], the “EGFR CRE IC50” value (EGFR CRE) is given as “no effect (EGFR, ERBB2/3, ERBB4); 0.031 µM (HTR2A, small effect)”, the IC50 (EGFR) is given as […] and the IC50 (ERBB4) is given as 654 nM. The IC50 (ERBB2/3 EGR1p) was 30 nM, the “ERBB4 CRE IC50” value (ERBB4 CRE) was “no effect (EGFR, ERBB2/3, ERBB4); 0.031 µM (HTR2A, small effect)” and the IC50 [1] was 300 to 2000 nM. The IC50 (ERBB3) was 857 nM, the IC50 (HTR2A CRE) was 31 nM and the IC50 [2] was 94 nM.

In the case of CCOc1cc2ncc(C#N)c(Nc3ccc(OCc4ccccn4)c(Cl)c3)c2cc1NC(=O)/C=C/[C@H]1CCCN1C [Pyrotinib], the “ERBB4 NFAT IC50” value (ERBB4 NFAT) is reported as “no effect (EGFR, ERBB2/3, ERBB4) - 0.576 µM (HTR2A, small effect)”, the “EGFR NFAT IC50” value (EGFR NFAT) is reported as “no effect (EGFR, ERBB2/3, ERBB4) - 0.576 µM (HTR2A, small effect)” and the IC50 (ERBB4) is reported as 117 nM. For the same compound, the IC50 (ERBB2/3 EGR1p) was 120 nM, the IC50 (A-431 cells) was 45 nM and the IC50 [3] was 39 to 42 nM. The “effect on CRE sensor activity (luciferase), in words” value (CRE sensor; PC12 cells, CRE sensor only, stimulation mix) was “CRE sensor activation at high compound concentrations”, the EC50 (CRE sensor; Rattus norvegicus, PC-12) was 1380 nM and the IC50 [2] was 450 nM.

Source: article PMC10831936 (iScience, 2024)
